Reference: patent US10975037B2 (priority 2018, dated 2021)
pIC50, pKd: −log10 of the molar value. Like-named read-outs stand apart in the source and are kept apart here.

What was measured:
[1] = target: human RORγt ligand binding domain (RORγt LBD) (Homo sapiens (Human), UniProt P51449); experiment: RORγt ThermoFluor® assay (thermal shift binding)
Protocol: This approach is applicable to a wide variety of systems, and rigorous in theoretical interpretation through quantitation of equilibrium binding constants (KD).
The shift in the melting point described as a ΔTm is proportional to the concentration and affinity of the ligand.
RORγt ThermoFluor® Assay Construct
Reference wells contained RORγt without compounds, and the assay conditions were as follows: • 0.065 mg/mL RORγt • 60 μM 1,8-ANS • 100 mM Hepes, pH 7.0 • 10 mM NaCl • 2.5 mM GSH • 0.002% Tween-20
Project compounds were arranged in a pre-dosed mother plate (Greiner Bio-one) wherein compounds are serially diluted in 100% DMSO by 1:2 from a high concentration of 10 mM over 12 columns within a series (column 12 is a reference well containing DMSO, no compound). The compounds were robotically dispensed directly into assay plates (1×=46 nL) using a Hummingbird capillary liquid handling instrument (Digilab). Following compound dispense, protein and dye in buffer was added to achieve the final assay volume of 3 μL, followed by 1 μL of silicone oil.

full-length human RORγt = full-length human RORγt (Homo sapiens (Human), UniProt P51449); experiment: RORγt (full-length human) reporter assay, conditions A or B, HEK293T cells; type: cell-based; settings: for pIC50: RORγt (FL) Reporter Assay A or B, IC50, HEK293T cells; for inhibition at 1 µM: 1 μM compound concentration (footnote ***); for inhibition at 6 µM: read-out: RORγt (FL) Reporter Assay A or B, % inhibition @ 6 μM, 6 μM compound concentration; for inhibition at 2 µM: 2 μM compound concentration
Sequence of full-length human RORγt (P51449 other isoform, or with tags, fused parts or gaps): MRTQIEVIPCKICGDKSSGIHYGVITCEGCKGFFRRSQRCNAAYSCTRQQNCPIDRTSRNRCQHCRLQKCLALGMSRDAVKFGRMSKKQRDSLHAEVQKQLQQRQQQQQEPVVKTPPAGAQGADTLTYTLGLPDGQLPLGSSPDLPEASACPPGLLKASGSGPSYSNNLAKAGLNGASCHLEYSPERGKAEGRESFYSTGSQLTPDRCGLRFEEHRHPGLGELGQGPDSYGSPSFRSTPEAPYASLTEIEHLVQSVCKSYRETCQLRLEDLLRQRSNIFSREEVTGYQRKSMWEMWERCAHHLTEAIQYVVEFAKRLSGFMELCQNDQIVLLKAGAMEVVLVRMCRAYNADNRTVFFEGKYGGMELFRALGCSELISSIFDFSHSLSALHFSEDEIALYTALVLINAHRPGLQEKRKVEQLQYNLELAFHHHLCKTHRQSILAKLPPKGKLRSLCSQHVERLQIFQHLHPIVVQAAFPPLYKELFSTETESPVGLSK
Procedure, shortened: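 Dual-luciferase read-out was taken after an overnight (16–20 h) compound exposure. Firefly data were scaled between DMSO-only and saturating reference compound, Renilla-normalized, then plotted against concentration for IC50.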

[2] = HEK-293T, read-out: RORγt (FL) Reporter Assay A or B, % inhibition
[3] = HEK-293T, 0.33 μM compound concentration (footnote *****), read-out: RORγt (FL) Reporter Assay A or B, % inhibition
[4] = read-out: ThermoFluor® Assay, Kd
[5] = HEK-293T, 0.22 μM compound concentration (footnote *******), read-out: RORγt (FL) Reporter Assay A or B, % inhibition

Sequence of human RORγt ligand binding domain (RORγt LBD) (P51449 other isoform, or with tags, fused parts or gaps): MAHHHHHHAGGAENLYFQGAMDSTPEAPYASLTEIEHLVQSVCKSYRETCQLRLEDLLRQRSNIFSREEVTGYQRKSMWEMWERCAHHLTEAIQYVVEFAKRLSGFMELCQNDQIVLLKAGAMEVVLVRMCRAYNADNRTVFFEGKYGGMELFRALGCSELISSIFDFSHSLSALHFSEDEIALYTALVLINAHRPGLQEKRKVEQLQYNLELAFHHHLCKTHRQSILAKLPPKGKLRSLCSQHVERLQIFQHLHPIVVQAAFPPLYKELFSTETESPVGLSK

## CCn1nc(C(=O)NC[C@H]2CC[C@H](S(C)(=O)=O)CC2)c(Cl)c1-c1ccc(C[C@@H](C)C(F)(F)F)cc1OC (single isomer, unassigned) [Example 1, 4-Chloro-1-ethyl-5-(2-methoxy-4-((R*)-3,3,3-trifluoro-2-methylpropyl)phenyl)-N-(((1r,4R)-4-(methylsulfonyl)cyclohexyl)methyl)-1H-pyrazole-3-carboxamide]
[1]; ThermoFluor® Assay, Kd
  pKd: 9.22
full-length human RORγt; HEK-293T, 0.67 μM compound concentration (footnote ****), read-out: RORγt (FL) Reporter Assay A or B, % inhibition
  inhibition at 0.67 µM: 99%
full-length human RORγt
  pIC50: 8.22

## CCn1nc(C(=O)NC[C@]2(O)CC[C@@H](S(N)(=O)=O)CC2)c(C)c1-c1ccc(C[C@H](C)C(F)(F)F)cc1OC(F)F (single isomer, unassigned) [Example 61, 5-(2-(difluoromethoxy)-4-((S*)-3,3,3-trifluoro-2-methylpropyl)phenyl)-1-ethyl-N-(((1s,4R)-1-hydroxy-4-sulfamoylcyclohexyl)methyl)-4-methyl-1H-pyrazole-3-carboxamide]
[1]; ThermoFluor® Assay, Kd
  pKd: 8.19
full-length human RORγt; [2]
  inhibition at 1 µM: 130%
full-length human RORγt
  pIC50: 7.17

## CCn1nc(C(=O)NC[C@@H]2CC[C@H](S(C)(=O)=O)CO2)c(Cl)c1-c1ccc(N[C@H](C)C(F)(F)F)cc1OC (relative stereo) [Example 18, 4-Chloro-1-ethyl-5-(2-methoxy-4-(((R)-1,1,1-trifluoropropan-2-yl)amino)phenyl)-N-(((2S*,5S*)-5-(methylsulfonyl)tetrahydro-2H-pyran-2-yl)methyl)-1H-pyrazole-3-carboxamide]
[1]; ThermoFluor® Assay, Kd
  pKd: 6.62
full-length human RORγt; HEK-293T
  inhibition at 6 µM: 102%
full-length human RORγt
  pIC50: 6.08

## CCCn1nc(C(=O)NC[C@]2(O)CC[C@@H](S(C)(=O)=O)CC2)c(Cl)c1-c1ccc(C[C@@H](C)C(F)(F)F)cc1OC (single isomer, unassigned) [Example 42, 4-Chloro-N-(((1s,4S)-1-hydroxy-4-(methylsulfonyl)cyclohexyl)methyl)-5-(2-methoxy-4-((R*)-3,3,3-trifluoro-2-methylpropyl)phenyl)-1-propyl-1H-pyrazole-3-carboxamide]
[1]; ThermoFluor® Assay, Kd
  pKd: 9.38
full-length human RORγt; [2]
  inhibition at 2 µM: 101%
full-length human RORγt
  pIC50: 8.05

## C[C@H](Cc1ccc(-c2c(Cl)c(C(=O)NC[C@]3(O)CC[C@@H](S(C)(=O)=O)CC3)nn2C)c(OC(F)F)c1)C(F)(F)F (single isomer, unassigned) [Example 152, 4-Chloro-5-(2-(difluoromethoxy)-4-((R*)-3,3,3-trifluoro-2-methylpropyl)phenyl)-N-(((1s,4S)-1-hydroxy-4-(methylsulfonyl)cyclohexyl)methyl)-1-methyl-1H-pyrazole-3-carboxamide]
[1]; ThermoFluor® Assay, Kd
  pKd: 8.10
full-length human RORγt; [3]
  inhibition at […]: 72%
full-length human RORγt
  pIC50: 7.43

## CCn1nc(C(=O)NC[C@H]2CC[C@H](S(C)(=O)=O)CC2)c(Cl)c1-c1ccc(CCCC(F)(F)F)cc1OC(F)F [Example 76, 4-Chloro-5-(2-(difluoromethoxy)-4-(4,4,4-trifluorobutyl)phenyl)-1-ethyl-N-(((1r,4r)-4-(methylsulfonyl)cyclohexyl)methyl)-1H-pyrazole-3-carboxamide]
[1]; [4]
  pKd: 9.55
full-length human RORγt; [5]
  inhibition at […]: 103%
full-length human RORγt
  pIC50: 8.68

## CCOC(=O)[C@]1(CNC(=O)c2nn(CC)c(-c3ccc(CC(C)(C)C(F)(F)F)cc3OC(F)F)c2Cl)CC[C@@H](S(C)(=O)=O)CC1 [Example 120, Ethyl (1r*,4r*)-1-((4-chloro-5-(2-(difluoromethoxy)-4-(3,3,3-trifluoro-2,2-dimethylpropyl)phenyl)-1-ethyl-1H-pyrazole-3-carboxamido)methyl)-4-(methylsulfonyl)cyclohexane-1-carboxylate]
[1]; ThermoFluor® Assay, Kd
  pKd: 8.00
full-length human RORγt; [5]
  inhibition at […]: 92%
full-length human RORγt
  pIC50: 7.55

## CCS(=O)(=O)[C@H]1CC[C@H](CNC(=O)c2nn(C)c(-c3ccc(CC(C)(C)C(F)(F)F)cc3OC(F)F)c2Cl)CC1 [Example 156, 4-Chloro-5-(2-(difluoromethoxy)-4-(3,3,3-trifluoro-2,2-dimethylpropyl)phenyl)-N-(((1r,4r)-4-(ethylsulfonyl)cyclohexyl)methyl)-1-methyl-1H-pyrazole-3-carboxamide]
[1]; [4]
  pKd: 8.82
full-length human RORγt; [3]
  inhibition at […]: 89%
full-length human RORγt
  pIC50: 7.70

## CCn1nc(C(=O)NC[C@]2(O)CC[C@@H](S(C)(=O)=O)CC2)c(Cl)c1-c1ccc(CCC(F)(F)F)cc1OC(F)F [Example 221, 4-Chloro-5-(2-(difluoromethoxy)-4-(3,3,3-trifluoropropyl)phenyl)-1-ethyl-N-(((1s,4s)-1-hydroxy-4-(methylsulfonyl)cyclohexyl)methyl)-1H-pyrazole-3-carboxamide]
[1]; [4]
  pKd: 8.60
full-length human RORγt; HEK-293T, 3 μM compound concentration (footnote *), read-out: RORγt (FL) Reporter Assay A or B, % inhibition
  inhibition at 3 µM: 90%
full-length human RORγt
  pIC50: 8.03

## COc1cc(N[C@H](C)C(F)(F)F)ccc1-c1c(Cl)c(C(=O)NC[C@H]2CC[C@H](S(C)(=O)=O)CC2)nn1CC(C)(C)O [Example 202, 4-Chloro-1-(2-hydroxy-2-methylpropyl)-5-(2-methoxy-4-(((R)-1,1,1-trifluoropropan-2-yl)amino)phenyl)-N-(((r,4R)-4-(methylsulfonyl)cyclohexyl)methyl)-1H-pyrazole-3-carboxamide]
[1]; [4]
  pKd: 6.74
full-length human RORγt; HEK-293T
  inhibition at 6 µM: 93%
full-length human RORγt
  pIC50: 6.07

## CCn1nc(C(=O)NC[C@H]2CC[C@H](S(C)(=O)=O)CC2)c(Cl)c1-c1ccc(N[C@H](C)C(F)(F)F)cc1 [Example 194, 4-Chloro-1-ethyl-N-(((1r,4R)-4-(methylsulfonyl)cyclohexyl)methyl)-5-(4-(((R)-1,1,1-trifluoropropan-2-yl)amino)phenyl)-1H-pyrazole-3-carboxamide]
[1]; [4]
  pKd: 7.54
full-length human RORγt; [2]
  inhibition at 2 µM: 93%
full-length human RORγt
  pIC50: 6.92

## CCn1nc(C(=O)NC[C@]2(O)CC[C@H](S(C)(=O)=O)C[C@H]2O)c(Cl)c1-c1ccc(CC(C)(C)C(F)(F)F)cc1OC(F)F (single isomer, unassigned) [Example 48, 4-Chloro-5-(2-(difluoromethoxy)-4-(3,3,3-trifluoro-2,2-dimethylpropyl)phenyl)-N-(((1R*,2R*4S*)-1,2-dihydroxy-4-(methylsulfonyl)cyclohexyl)methyl)-1-ethyl-1H-pyrazole-3-carboxamide]
[1]; ThermoFluor® Assay, Kd
  pKd: 7.51
full-length human RORγt; [2]
  inhibition at 2 µM: 95%
full-length human RORγt
  pIC50: 7.21

## COc1cc(N[C@H](C)C(F)(F)F)ccc1-c1c(Cl)c(C(=O)NC[C@H]2CC[C@H](S(C)(=O)=O)CC2)nn1C(C)(C)C [Example 26, 1-(tert-Butyl)-4-chloro-5-(2-methoxy-4-(((R)-1,1,1-trifluoropropan-2-yl)amino)phenyl)-N-(((1r,4R)-4-(methylsulfonyl)cyclohexyl)methyl)-1H-pyrazole-3-carboxamide]
[1]; [4]
  pKd: 8.41
full-length human RORγt; HEK-293T
  inhibition at 6 µM: 108%
full-length human RORγt
  pIC50: 7.54

## CCn1nc(C(=O)NC[C@@]2(O)CC[C@H](S(C)(=O)=O)C[C@@H]2O)c(Cl)c1-c1ccc(C[C@@H](C)C(F)(F)F)cc1OC(F)F (stereo in doubt) [Example 138, 4-Chloro-5-(2-(difluoromethoxy)-4-((R*)-3,3,3-trifluoro-2-methylpropyl)phenyl)-N-(((1S*,2S*,4S*)-1,2-dihydroxy-4-(methylsulfonyl)cyclohexyl)methyl)-1-ethyl-1H-pyrazole-3-carboxamide]
[1]; ThermoFluor® Assay, Kd
  pKd: 8.43
full-length human RORγt; [2]
  inhibition at 1 µM: 101%
full-length human RORγt
  pIC50: 7.92
